# Experimental data: patent publication US20110300147A9, “Inhibiting tumor cell invasion, metastasis and angiogenesis” (The Scripps Research institute, priority 2005, published 2011)
# Experiments:
# [1] = system: breast cancer cells; test: hypoxia induced breast cancer cell migration in vitro; format: cell-based
# [2] = cytotoxicity of AEPI-1 in wild type 293 cells; format: cell-based, human; details: human, wild type 293 cells
# Description: (§1) To further evaluate the role of asparaginyl endopeptidases in angiogenesis, four asparaginyl endopeptidases inhibitors (AEPI) were tested using recombinant legumain in an amidolytic activity assay with fluorescent substrate. FIG. 4A graphically illustrates the effects that AEPI-1 to AEPI-4 (also referred to as legumain inhibitors LI-1 to LI-4) have on asparaginyl endopeptidase activity. […] No apparent cytotoxicity was observed until almost 100 μM AEPI-1 was used in these assays (FIG. 4B).
# [3] = system: wild type 293 cells; test: cytotoxicity of AEPI-1 in wild type 293 cells; format: cell-based, human; details: wild type and legumain-expressing 293 cells
# Description: as §1
# [4] = system: mouse aorta vessel sprouts; test: mouse aortic sprouting assay; format: cell-based
# Description: The effects of AEPI-1 on angiogenesis were further evaluated in mouse aortic sprouting assays. First, AEPI-1 was added to the beginning of the experiment to determine its effect on initiation of vessel sprouts (FIG. 5A). […] In the second assay, AEPI-1 was added at the third day after aortic sprouts were already formed (FIG. 5B), to ascertain whether asparaginyl endopeptidase activity was required for continued extension of vessel growth.
# [5] = system: angiogenesis in Matrigel plugs; test: Matrigel plug angiogenesis assay in vivo; design: species or system Balb C nu/nu mice
# Description: The effect of AEPI-1 on angiogenesis was further investigated in vivo using a Matrigel plug assay. Matrigel containing FGF-2 was injected subcutaneously into Balb C nu/nu mice.
# The effect of AEPI-1 on angiogenesis induced by cancer cells was then investigated by including human breast cancer cells (MDA-MB-231 cells) in the Matrigel plugs. The cancer cells produced a spectrum of angiogenic factors and induced robust angiogenic vessel growth (FIG. 5C).
# [6] = system: MDA-MB-231 cells; test: MDA-MB-231 human mammary carcinoma model; format: in vivo, Balb C nu/nu mice; details: two weeks after tumor cell implantation
# Description: The effect of AEPI-1 on tumor growth and invasion was then evaluated in a human mammary carcinoma model established in Balb C nu/nu mice. The MDA-MB-231 cells grew aggressively in vivo and formed a tumor that was similar to a human infiltrating ductal carcinoma with apparent glandular differentiation. The tumor locally invaded surrounding tissues and skeletal muscles.
# [7] = system: 4T1 mammary carcinoma; test: primary 4T1 tumor and spontaneous lung metastasis model; format: in vivo, BALB/c mice; details: AEPI-1 50 μg i.p. every two days for two weeks
# Description: Primary 4T1 tumors are generated by subcutaneous injection of 5×10^5 4T1 cells in the right flank of six-week-old BALB/c mice. Two different groups of four animals were treated between days 9 and 27 after tumor induction. The treatments were 100-μl […] injections of PBS alone (control group) or LEG-3 100 μg/100 μl in PBS by intraperitoneal injection every two days for two weeks. Tumor volumes of treated animals were measured every two-day starting on day 9 by microcaliper measurements (volume=width×length×width/2). As soon as the tumor volume reached 1400 mm^3 in the control groups (on day 30th), euthanasia was performed and lungs were removed and fixed in the Bouin's solution. Lung metastases were counted by anatomy microscope. Statistical significance between treatment groups was determined by two-tailed Student's t tests using Microsoft EXCEL software.
# Tumor induction was performed by subcutaneous injection of 5×10^5 4T1 cells in the right flank mammary fat pat of six-week-old BALB/c mice. […] Tumor volumes of treated animals were measured everyday starting on day 6 by micro-caliper measurements (volume=width×length×width/2). […] Lung metastases were counted by anatomy microscope. The statistical significance between treatment and control groups was determined by two-tailed Student's t tests using Microsoft EXCEL software.
# [8] = system: HUVEC; test: matrigel endothelial cell tube formation assay; format: cell-based, human
# Description: The effect of AEPI-1 on endothelial cell function was assessed in vitro in a matrigel endothelial cell tube formation assay. […] In contrast, addition of recombinant legumain dramatically promoted and accelerated tube formation (FIG. 4D). HUVEC tube formation was observed as early as 5 hours after assay initiation when legumain was added. Under normal conditions 24 hours were required for the vascular tubes to form.
# [9] = system: 4T1 breast cells; test: 4T1 experimental lung metastasis model; format: in vivo, BALB/c mice; details: AEPI-1 100 μg i.p. daily for two weeks
# Description: A lung metastasis model was induced experimentally by injecting a cell suspension of 4T1 breast cells (1×10^5) suspended in 0.1 ml serum free medium into the tail vein of six-week-old female BALB/c mice. The mice were treated with 100-μl intraperitoneal injections of either PBS alone (control group) or LEG-3 (100 μg/100 μl) daily for two weeks.
# 4T1 Lung Experimental Metastasis was generated by suspending 4T1 cells (1×10^5) in 0.1 ml serum-free medium and injecting these cells into the tail vein of mice under the anesthesia. Treatment involved 100 μl intraperitoneal injection of either saline alone (control group) or AEPI-1 (treatment group). The AEPI-1 treatment group was given 100 μg AEPI-1 in saline (100 ul) by intraperitoneal injection daily for two weeks. All mice were euthanized by CO2 and lungs were removed, weighted and fixed in the Bouin's solution. Lung metastases were counted by anatomy microscope.
# [10] = molecular target: legumain cleavage of caspase 9 (Homo sapiens, UniProt Q99538); test: caspase 9 activity after legumain cleavage; format: biochemical
# Description: Legumain catalytically inactivates caspase 9. In addition to suppression of cathepsin B, legumain efficiently inactivates caspase 9 and depletes the cell of pro-caspase 9 (FIG. 20A). […] Loss of pro-caspase 9 led to reduced caspase 3 activation in a reconstituted apoptosome system (FIG. 20D), which was further confirmed by detection of reduced caspase 3 activity (FIG. 20E). These observations indicate that asparaginyl endopeptidases play a critical role in cell survival and tumorigenesis.
# [11] = cytotoxicity of AEPI-1 in 293 cells expressing legumain; format: cell-based; details: human, 293 cells recombinantly expressing legumain; 293 cells that recombinantly expressed legumain
# Description: as §1
# legumain cleavage of caspase 9, sequence (Q99538 18-323, species assumed): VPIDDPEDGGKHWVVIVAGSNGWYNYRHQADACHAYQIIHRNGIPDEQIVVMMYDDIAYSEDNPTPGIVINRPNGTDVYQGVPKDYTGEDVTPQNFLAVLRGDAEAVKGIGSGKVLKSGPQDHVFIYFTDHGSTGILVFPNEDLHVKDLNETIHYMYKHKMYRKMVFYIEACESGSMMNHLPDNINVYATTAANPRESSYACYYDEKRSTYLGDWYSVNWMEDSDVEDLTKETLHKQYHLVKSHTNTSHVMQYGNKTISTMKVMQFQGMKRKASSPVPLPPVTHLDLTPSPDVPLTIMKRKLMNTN
smiles,measurement,setting,value
"CCOC(=O)C1OC1C(=O)N(CC(N)=O)NC(=O)[C@H](C)NC(=O)[C@H](C)NC(=O)OCc1ccccc1 (stereo partly drawn) [AEPI-1, Cbz-Ala-Ala-AzaAsn-(S,S)-EPCOOEt]",hypoxia induced breast cancer cell migration,[1],inhibited
same,CC50,[2],320 µM
same,concentration until which no apparent cytotoxicity was observed,[3],~100 µM
same,FGF-2 induced vessel sprouts (initiation),[4]; AEPI-1 added at the beginning of the experiment,inhibited FGF-2 induced vessel sprouts in a dose dependent manner
same,extension of established vascular outgrowth,[4]; AEPI-1 added at the third day after aortic sprouts were formed,significantly reduced
same,cancer cell-induced angiogenesis in the plug,[5]; MDA-MB-231 cells in the Matrigel plugs,essentially completely inhibited
same,FGF-2 induced vessel formation in the plug,"[5]; Matrigel containing FGF-2 s.c., gross appearance, hemoglobin content, histology",significantly inhibited
same,tumor differentiation into a more invasive form,[6],blocked
same,tumor growth,[6],completely suppressed tumor growth
same,growth of 4T1 mammary carcinoma,[7],inhibits the growth
same,spontaneous lung metastasis,[7],inhibited spontaneous lung metastasis
same,concentration at which inhibition of tube formation was apparent,"[8]; HUVEC, matrigel",100 nM
same,concentration at which tube formation was completely inhibited,"[8]; HUVEC, matrigel",600 nM
same,hypoxia induced tube formation,[8]; hypoxic conditions,inhibited
same,HUVEC tube formation,"[8]; matrigel, normal conditions",suppressed HUVEC tube formation in a dose dependent manner
same,experimental lung metastasis,[9],inhibited experimental lung metastasis
same,loss of caspase 9 activity caused by legumain cleavage,[10],inhibited
same,CC50,[11],430 µM
